Source: ChEMBL document CHEMBL1201862, “PubChem BioAssay data set” (2004)
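How tested: cells in 96-well plates exposed to compound for 48 hours at five concentrations. At the GI50, growth is halved.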 The source made the active and inactive calls. Cut-off read from the data, not from the text of the source: active = GI50 up to about 1.1 µM and inactive = higher.

What was measured:
Experiment in all cases: NCI tumour cell line growth inhibition, 48 h
ACHN = test system: ACHN
BT-549 = test system: BT-549
CCRF-CEM = test system: CCRF-CEM
HOP-62 = test system: HOP-62
Hs-578T = test system: Hs-578T
KM12 = test system: KM12
M14 = test system: M14
MOLT-4 = test system: MOLT-4
NCI-H226 = test system: NCI-H226
NCI-H522 = test system: NCI-H522
NCI/ADR-RES = test system: NCI/ADR-RES
OVCAR-3 = test system: OVCAR-3
SF-268 = test system: SF-268
SF-295 = test system: SF-295
SK-MEL-28 = test system: SK-MEL-28
SNB-75 = test system: SNB-75
SW-620 = test system: SW-620
TK-10 = test system: TK-10
U-251 = test system: U-251
UACC-257 = test system: UACC-257

| Structure (SMILES) | GI50 (ACHN) | GI50 (BT-549) | GI50 (CCRF-CEM) | GI50 (HOP-62) | GI50 (Hs-578T) | GI50 (KM12) | GI50 (M14) | GI50 (MOLT-4) | GI50 (NCI-H226) | GI50 (NCI-H522) | GI50 (NCI/ADR-RES) | GI50 (OVCAR-3) | GI50 (SF-268) | GI50 (SF-295) | GI50 (SK-MEL-28) | GI50 (SNB-75) | GI50 (SW-620) | GI50 (TK-10) | GI50 (U-251) | GI50 (UACC-257) |
| --- | --- | --- | --- | --- | --- | --- | --- | --- | --- | --- | --- | --- | --- | --- | --- | --- | --- | --- | --- | --- |
| O=C(CSc1nc2nncc-2c(O)[nH]1)c1ccc(Cl)cc1 | > 100 µM (inactive) | > 100 µM (inactive) | > 100 µM (inactive) | > 100 µM (inactive) | > 100 µM (inactive) | > 100 µM (inactive) | > 100 µM (inactive) | > 100 µM (inactive) | > 100 µM (inactive) | > 100 µM (inactive) | > 100 µM (inactive) | > 100 µM (inactive) | > 100 µM (inactive) | > 100 µM (inactive) | > 100 µM (inactive) | 0.246 µM (active) | > 100 µM (inactive) | > 100 µM (inactive) | > 100 µM (inactive) | > 100 µM (inactive) |
| O=c1c2ccccc2[nH]c(=S)n1-c1ccc(/N=N/c2cccc3c(O)cccc23)cc1 | 88.3 µM (inactive) | > 100 µM (inactive) | > 100 µM (inactive) | > 100 µM (inactive) | > 100 µM (inactive) | > 100 µM (inactive) | 50.8 µM (inactive) | 45.3 µM (inactive) | > 100 µM (inactive) | > 100 µM (inactive) | > 100 µM (inactive) | 62.2 µM (inactive) | > 100 µM (inactive) | > 100 µM (inactive) | > 100 µM (inactive) | > 100 µM (inactive) | > 100 µM (inactive) | > 100 µM (inactive) | 87.5 µM (inactive) | 50.9 µM (inactive) |
| CCOc1ccc(/C=C2\NC(=S)N(/C=C3\C(=O)Oc4ccccc4C3=O)C2=O)cc1 | 25.5 µM (inactive) | 23.6 µM (inactive) | 15.1 µM (inactive) | 26.1 µM (inactive) | 23.4 µM (inactive) | 20.7 µM (inactive) | 31.6 µM (inactive) | 24.3 µM (inactive) | 24.7 µM (inactive) | 20.7 µM (inactive) | 23.1 µM (inactive) | 21.1 µM (inactive) | 22.2 µM (inactive) | 20.4 µM (inactive) | 36.8 µM (inactive) | 23 µM (inactive) | 37.8 µM (inactive) | 20.2 µM (inactive) | 29 µM (inactive) | 26.6 µM (inactive) |
| COC(=O)CCC1(C)C2CCC1/C(=N/O)C2 (stereo not given) | > 100 µM (inactive) | > 100 µM (inactive) | > 100 µM (inactive) | > 100 µM (inactive) | > 100 µM (inactive) | > 100 µM (inactive) | > 100 µM (inactive) | > 100 µM (inactive) | > 100 µM (inactive) | > 100 µM (inactive) | > 100 µM (inactive) | > 100 µM (inactive) | > 100 µM (inactive) | > 100 µM (inactive) | > 100 µM (inactive) | > 100 µM (inactive) | > 100 µM (inactive) | > 100 µM (inactive) | > 100 µM (inactive) | > 100 µM (inactive) |
| Cc1ccc2c(c1)C(=S)N1CSCC1c1nncn1-2 (stereo not given) | > 100 µM (inactive) | > 100 µM (inactive) | > 100 µM (inactive) | > 100 µM (inactive) | > 100 µM (inactive) | > 100 µM (inactive) | > 100 µM (inactive) | > 100 µM (inactive) | > 100 µM (inactive) | > 100 µM (inactive) | > 100 µM (inactive) | > 100 µM (inactive) | > 100 µM (inactive) | > 100 µM (inactive) | > 100 µM (inactive) | > 100 µM (inactive) | > 100 µM (inactive) | > 100 µM (inactive) | > 100 µM (inactive) | > 100 µM (inactive) |
